Data set [1] has as its system Sonic Hedgehog (SHH) ligand expression in bladder cancer cells. Nature of the data set: Sonic Hedgehog ligand expression in bladder cancer cells after chemotherapy. Format: cell-based, human. The following applies: over time after chemotherapy. An excerpt: Similar results showing increases in Hh ligand expression in response to chemotherapy have been found in other tumor cells. For example, chemotherapy increases in Sonic Hedgehog (SHH) ligand expression in bladder cancer cells are depicted in FIGS. 4A-4D.

A further data set has as its system hedgehog pathway. Put plainly: C3H10T1/2 alkaline phosphatase assay (Shh-dependent osteoblast differentiation). The class given is cell-based. The following applies: Mus musculus, C3H 10T1/2; sonic hedgehog 250 ng/ml; AP normalized to total protein; read-out: IC50, antagonist of the hedgehog pathway (AP activity). From the text:
Cancer cell killing by inhibition of a component of the hedgehog pathway can be ascertained using the following assay. C3H10T1/2 cells differentiate into osteoblasts when contacted with the sonic hedgehog peptide (Shh-N). Upon differentiation, these osteoblasts produce high levels of alkaline phosphatase (AP) which can be measured in an enzymatic assay (Nakamura et al., 1997 BBRC 237: 465). Compounds that block the differentiation of C3H10T1/2 into osteoblasts (a Shh dependent event) can therefore be identified by a reduction in AP production (van der Horst et al., 2003 Bone 33: 899). The assay details are described below. Additional assays to ascertain the activity of hedgehog inhibitors, including IPI-926, are described in US 2009/0181997 by Grayzel et al.; U.S. Ser. No. 61/327,373 and 61/331,365, filed on Apr. 23, 2010 and May 4, 2010, respectively; the entire contents of the aforesaid applications are incorporated herein by reference. […]
C3H10T1/2 cells were plated in 96 wells with a density of 8×10^3 cells/well. […] After incubating for 30 min at 37° C., the plates were read on an Envision plate reader at 405 nm. Total protein was quantified with a BCA protein assay kit from Pierce according to manufacturer's instructions. […]

In data set [2] the test system is Ptch1+/-; p53-/- medulloblastoma. The following applies: cited from earlier work.
The test system of data set [3] is LuCaP35V (Castration Resistant) primary prostate cancer. Nature of the data set: LuCaP35V castration resistant primary prostate cancer model. Format: in vivo. The conditions noted are these: docetaxel IV Q14D for 28 days, docetaxel+vehicle samples. An excerpt: The effects of IPI-926 were examined following docetaxel chemotherapy in a model of castration resistant prostate cancer. Prostate cancer is known to be a highly desmoplastic cancer, and one that preferentially metastasizes to bone. Sonic hedgehog ligand is expressed in clinical specimens and primary xenograft models. […] FIG. 7 summarizes the effects of IPI-926 in LuCaP35V (Castration Resistant) primary prostate cancer model. Days of docetaxel and IPI-926 administration are indicated by the arrowheads at the indicated days post-implant. The following samples were tested: Vehicle control (administered orally once a day), 40 mg/kg of IPI-926 (administered orally once a day), docetaxel (administered intravenously Q14D for 28 days), or docetaxel (administered intravenously Q14D for 28 days) followed by 40 mg/kg of IPI-926, as shown in FIG. 7. […] Thus, IPI-926 can be useful as maintenance therapy in prostate cancer.

The next data set concerns the target Pgp (Homo sapiens, UniProt P08183). The following applies: cited from earlier work.

Consider six compounds from patent publication US20120010229A1, “THERAPEUTIC REGIMENS FOR HEDGEHOG-ASSOCIATED CANCERS” (priority 2010, published 2012).

Counter-ions that a name gives are not always drawn.

Pgp, sequence (P08183 whole entry): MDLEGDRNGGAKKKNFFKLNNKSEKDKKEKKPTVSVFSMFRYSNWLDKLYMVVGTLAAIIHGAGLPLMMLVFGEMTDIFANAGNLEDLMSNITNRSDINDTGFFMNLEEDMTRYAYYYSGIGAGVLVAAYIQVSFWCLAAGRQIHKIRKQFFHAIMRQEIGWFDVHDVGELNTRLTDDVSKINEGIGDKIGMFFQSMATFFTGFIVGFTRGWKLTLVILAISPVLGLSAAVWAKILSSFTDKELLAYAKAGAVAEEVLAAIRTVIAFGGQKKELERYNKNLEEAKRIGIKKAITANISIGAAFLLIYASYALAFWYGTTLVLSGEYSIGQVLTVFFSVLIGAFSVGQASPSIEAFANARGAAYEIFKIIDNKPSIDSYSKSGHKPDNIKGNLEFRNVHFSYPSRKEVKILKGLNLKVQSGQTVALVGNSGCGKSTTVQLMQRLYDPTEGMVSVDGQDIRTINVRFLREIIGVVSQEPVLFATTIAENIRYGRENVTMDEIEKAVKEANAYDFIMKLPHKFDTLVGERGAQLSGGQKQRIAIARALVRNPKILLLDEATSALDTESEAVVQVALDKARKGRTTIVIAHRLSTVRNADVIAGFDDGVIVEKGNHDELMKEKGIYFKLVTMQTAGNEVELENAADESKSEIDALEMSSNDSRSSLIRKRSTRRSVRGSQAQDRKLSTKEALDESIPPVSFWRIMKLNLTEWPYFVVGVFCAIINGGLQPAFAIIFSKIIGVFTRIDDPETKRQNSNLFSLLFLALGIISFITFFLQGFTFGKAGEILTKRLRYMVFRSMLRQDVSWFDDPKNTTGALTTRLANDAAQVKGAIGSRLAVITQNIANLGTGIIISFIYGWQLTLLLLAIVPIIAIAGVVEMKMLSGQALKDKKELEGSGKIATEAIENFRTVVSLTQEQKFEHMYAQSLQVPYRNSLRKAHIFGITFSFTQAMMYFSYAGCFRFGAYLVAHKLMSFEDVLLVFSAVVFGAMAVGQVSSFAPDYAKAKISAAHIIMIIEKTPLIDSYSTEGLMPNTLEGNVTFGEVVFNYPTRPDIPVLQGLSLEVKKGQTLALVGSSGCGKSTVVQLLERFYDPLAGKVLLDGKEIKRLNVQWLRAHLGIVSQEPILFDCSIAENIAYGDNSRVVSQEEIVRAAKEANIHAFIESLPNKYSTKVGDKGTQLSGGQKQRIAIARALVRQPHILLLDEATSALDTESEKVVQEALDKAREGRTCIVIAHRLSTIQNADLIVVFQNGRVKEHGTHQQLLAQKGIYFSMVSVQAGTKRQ

`Nc1ccn([C@@H]2O[C@H](CO)[C@@H](O)C2(F)F)c(=O)n1` [Gemcitabine]: in data set [1], the “Sonic Hedgehog (SHH) ligand expression” value is on record as “increase in expression over time”.

For the compound `CC1=C2C[C@H]3[C@@H](CC[C@@H]4C[C@H](NS(C)(=O)=O)CC[C@@]43C)[C@@H]2CC[C@@]2(C1)O[C@@H]1C[C@H](C)CN[C@H]1[C@H]2C` [IPI-926 (HCl salt)], in the data set with hedgehog pathway, the half-maximal inhibitory concentration (IC50) (commonly the concentration that inhibits the measured activity by half) is below 20 nM.

With HhAntag, the survival vs vehicle result in data set [2] (100 mg/kg, enrolled at 5 weeks of age) is on record as “survival benefit”. Besides, in data set [2] (2 weeks of twice daily 20 mg/kg or 100 mg/kg, enrolled at 3 weeks of age), the tumor mass result is “substantial decrease in tumor mass”.

For `CC(=O)O[C@@]12CO[C@@H]1C[C@H](O)[C@@]1(C)C(=O)[C@H](O)C3=C(C)[C@@H](OC(=O)[C@H](O)[C@@H](NC(=O)OC(C)(C)C)c4ccccc4)C[C@@](O)([C@@H](OC(=O)c4ccccc4)[C@H]21)C3(C)C` [docetaxel, reference compound], the “tumor volume after cessation of docetaxel” value in data set [3] is “Tumor reoccurrence was detected”.

With `COc1cccc2c1C(=O)c1c(O)c3c(c(O)c1C2=O)C[C@@](O)(C(=O)CO)C[C@@H]3O[C@H]1C[C@H](N)[C@H](O)[C@H](C)O1` [Doxorubicin], in data set [1], the “Sonic Hedgehog (SHH) ligand expression” value is listed as “increase in expression over time”.

On to `CS(=O)(=O)c1ccc(C(=O)Nc2ccc(Cl)c(-c3ccccn3)c2)c(Cl)c1` [GDC-0449], for which, on Pgp, the Pgp substrate result is “p-glycoprotein (Pgp) substrate”.
